Measured values: ChEMBL document CHEMBL1156504, “Structural characterization of the human androgen receptor ligand-binding domain complexed with EM5744, a rationally designed steroidal ligand bearing a bulky chain directed toward helix 12” (J Biol Chem, 2007)
Calls of active or inactive are those of the source. The rule behind the calls is not given here.

Assays:
[1] = species on record: Mus musculus; assay: Induction of proliferation of mouse Shionogi cells at 10 pM; type: functional
[2] = species on record: Mus musculus; assay: Inhibition of 5-alpha-dihydrotestosterone-stimulated growth of mouse Shionogi cells at 1 uM; type: functional

Structure (SMILES) | Activity [1] | Activity [2]
C[C@]12CCC(=O)C[C@@H]1CC[C@@H]1[C@@H]2CC[C@]2(CCOCc3cc(F)cc(F)c3)[C@@H](O)CC[C@@H]12 | Active | inactive
C[C@]12CCC(=O)C[C@@H]1CC[C@@H]1[C@@H]2CC[C@]2(C)[C@@H](O)CC[C@@H]12 | Active | –
